Assay results: US8796300B2, “Therapeutic compounds” (Rutgers, the State University of New Jersey, priority 2009, dated 2014)

Columns and labels:
[1] = test system: human lymphoblastoma cell line RPMI 8402; test: MTT cytotoxicity assay (Test B); format: cell-based; conditions: RPMI 8402, 96 h, cells cultured 4 days
Source text: (§1) Test B. Evaluation of G-Quadruplex Stabilizers using the MTT Assay.
(§2) Cell lines are selected based upon one or more factors including data on their relative telomerase activity, varied organ sites, available comparative data, and their ability to form solid tumors in athymic nude mice. The advantage of an MTT assay is that the cytotoxic/cytostatic activities can be readily determined.

[2] = test system: KB3-1 human epidermoid carcinoma tumor cells; test: MTT cytotoxicity assay (Test B); format: cell-based; conditions: KB 3-1, 96 h, cells cultured 4 days
Source text: as §1, §2

[3] = test system: Human Telomeric G-Quadruplex DNA d(T2AG3)4; test: UV melting, thermal stabilization of G-quadruplex DNA (Test A); format: binding; conditions: pH 7.5, 50 mM K+; Tm of the drug-DNA complex minus that of the DNA alone; absorbance at 295 nm
Source text: (§3) Test A. Selective Stabilization of G-Quadruplex DNA Analyses can be performed to determine the ability of the compounds to selectively bind and thermally stabilize quadruplex relative to duplex DNA. Toward this end, the UV absorbances of the DNA molecules are monitored as a function of temperature in the absence and presence of compound. The melting of duplex DNA is generally associated with a hyperchromic shift at 260 nm, while the melting of quadruplex DNA is associated with a hypochromic shift at 295 nm. Thus, the temperature-dependent absorbances of duplex DNA are monitored at 260 nm, with the corresponding quadruplex absorbances being monitored at 295 nm. Salmon testes DNA can be used as a representative model of duplex DNA and d([…])4 can be used as a representative model of quadruplex DNA. All UV melting studies are conducted at physiological pH (7.4) in the presence of potassium ions at physiologically relevant concentrations. Representative compounds of formula I (compounds 6, 32, and 33) were evaluated for their abilities to selectively bind and stabilize G-quadruplex relative to duplex DNA. […] By contrast, none of the compounds exert any impact on the thermal stability of the DNA duplex (ΔTm=0° C. for all three compounds).

Salmon Testes Duplex DNA = test: UV melting, thermal stabilization of duplex DNA (Test A); format: binding; conditions: pH 7.5, 50 mM K+; Tm of the drug-DNA complex minus that of the DNA alone; absorbance at 260 nm
Source text: as §3

[4] = test system: MDA-MB-435 human tumor xenografts (human melanoma cells); test: Human tumor xenograft athymic nude mouse model (Test C); format: in vivo, female NCR/NU NU mice; conditions: ip injection; athymic nude mice; tumor volume
Protocol: Test C. Evaluation of G-Quadruplex Stabilizers in the Human Tumor Xenograft Athymic Nude Mouse Model.
Compound 33 inhibited the growth of MDA-MD-435 human tumor xenografts (developed from human melanoma cells) in vivo by more than 50% when administered by ip injection. Bioassays were performed using female NCR/NU NU mice of approximately 9 weeks of age as obtained from Taconic Farms, Inc. (Germantown, N.Y., USA). Mice were housed 4 per cage in laminar flow HEPA filtered microisolator caging (Allentown Caging Equipment Co., Allentown, N.J., USA). Mice were fed Purina autoclavable breeder chow #5021 and given drinking water, purified by reverse-osmosis, ad libitum. Five days after arrival within the animal facility, the mice were inoculated on the right flank with 1.5×10^6 MDA-MB-435 tumor cells in 0.1 mL of RPMI 1640 Media by sc injection (25 gauge needle×⅝″). The MDA-MB-435 cells were grown in 75 cm^2 flasks using RPMI 1640 Media and 10% fetal bovine serum. Tumors were of sufficient size at 19-20 days after inoculation. Tumor-bearing mice were evenly matched in each experimental group based on tumor volume. Tumor volume was calculated by measuring the tumor with a microcaliper. The length (l) is the maximum two dimensional distance of the tumor and the width (w) is the maximum distance perpendicular to this length measured in mm. Tumor volume was calculated using the formula (l*w^2)/2.

WAC2 = conditions: human neuroblastoma cell line; read-out: cytotoxicity IC50 WAC2; cited from earlier work
LAN1 = conditions: human neuroblastoma cell line; read-out: cytotoxicity IC50 LAN1; cited from earlier work
MiaPaCa = conditions: human pancreatic carcinoma; read-out: cytotoxicity IC50 MiaPaCa; cited from earlier work
LAN5 = conditions: human neuroblastoma cell line; read-out: cytotoxicity IC50 LAN5; cited from earlier work
telomerase = conditions: read-out: telomerase inhibitory activity IC50; cited from earlier work
SK-N-AS = conditions: human neuroblastoma cell line; read-out: cytotoxicity IC50 SK-N-AS; cited from earlier work
[5] = test system: HBC-4, BSY-1, HBC-5, MCF-7, and MDA-MB-231; conditions: range over HBC-4, BSY-1, HBC-5, MCF-7, MDA-MB-231; read-out: GI50 against human breast cancer cell lines; cited from earlier work

Row | melting point | Structure (SMILES) | IC50 [1] | IC50 [2] | other results
1 | 245 °C | O=C1NCc2cccc(c2)CNC(=O)c2coc(n2)-c2csc(n2)-c2cccc(n2)-c2nc(cs2)-c2nc1co2 [Compound 22] | > 10000 nM | > 10000 nM | –
2 | 320 to 324 °C (dec.) | O=C1NCc2cccc(c2)CNC(=O)c2coc(n2)-c2coc(n2)-c2cccc(n2)-c2nc(co2)-c2nc1co2 [Compound 6] | 1050 nM | 1200 nM | Human Telomeric G-Quadruplex DNA ΔTm [3]: 20.5 °C; Salmon Testes Duplex DNA ΔTm (Salmon Testes Duplex DNA): 0 °C
3 | – | CC(=O)NCCCOc1cc2nc(c1)-c1nc(co1)-c1nc(co1)C(=O)NCc1cccc(c1)CNC(=O)c1coc(n1)-c1coc-2n1 [Compound 47] | > 10000 nM | 10000 nM | –
4 | 305 to 307 °C (dec.) | O=C1NCc2cc(CCNC(=O)C(F)(F)F)cc(c2)CNC(=O)c2coc(n2)-c2coc(n2)-c2cc(Br)cc(n2)-c2nc(co2)-c2nc1co2 [Compound 36] | > 10000 nM | 4000 nM | –
5 | 167 to 170 °C | O=C(NCCc1cc2cc(c1)CNC(=O)c1coc(n1)-c1coc(n1)-c1cc(OCCCN3C(=O)c4ccccc4C3=O)cc(n1)-c1nc(co1)-c1nc(co1)C(=O)NC2)OCc1ccccc1 [Compound 45] | > 10000 nM | > 10000 nM | –
6 | 295 °C (dec.) | CN(C)CCc1cc2cc(c1)CNC(=O)c1coc(n1)-c1coc(n1)-c1cccc(n1)-c1nc(co1)-c1nc(co1)C(=O)NC2 [Compound 33] | 180 nM | 40 nM | Human Telomeric G-Quadruplex DNA ΔTm [3]: 31.5 °C; Salmon Testes Duplex DNA ΔTm (Salmon Testes Duplex DNA): 0 °C; inhibition of growth of human tumor xenografts in vivo [4]: more than 50%
7 | 277 to 280 °C (dec.) | NCCc1cc2cc(c1)CNC(=O)c1coc(n1)-c1coc(n1)-c1cccc(n1)-c1nc(co1)-c1nc(co1)C(=O)NC2 [Compound 32] | 90 nM | 30 nM | –
8 | 248 to 250 °C | O=C1NCc2cc(Br)cc(c2)CNC(=O)c2coc(n2)-c2coc(n2)-c2cccc(n2)-c2nc(co2)-c2nc1co2 [Compound 29] | 300 nM | 60 nM | –
9 | – | Cc1oc2nc1-c1nc(co1)-c1nc(co1)-c1nc(co1)-c1nc(co1)-c1nc(co1)C1=NC(CS1)c1nc-2c(C)o1 (stereo not shown) [Telomestatin] | – | – | IC50 (WAC2): 3200 nM; IC50 (LAN1): 4000 nM; IC50 (MiaPaCa): 500 nM; IC50 (LAN5): 2500 nM; IC50 (telomerase): 5 nM; IC50 (SK-N-AS): 800 nM
10 | – | CC(C)(C)OC(=O)NCCc1cc2cc(c1)CNC(=O)c1coc(n1)-c1coc(n1)-c1cccc(c1)-c1nc(co1)-c1nc(co1)C(=O)NC2 [Compound 59] | 3600 nM | 3100 nM | –
11 | 290 °C (dec.) | O=C1NCc2cc(CCNC(=O)C(F)(F)F)cc(c2)CNC(=O)c2coc(n2)-c2coc(n2)-c2cccc(n2)-c2nc(co2)-c2nc1co2 [Compound 31] | 170 nM | 70 nM | –
12 | – | CC[C@H](C)[C@@H]1NC(=O)c2nc(oc2-c2ccccc2)-c2csc(n2)-c2coc(n2)-c2coc(n2)-c2coc(n2)CNC(=O)[C@@H](C(C)C)NC1=O [YM-216391] | – | – | GI50 [5]: 15 to 33 nM
13 | 211 to 213 °C | O=C1NCc2cccc(c2)CNC(=O)c2coc(n2)-c2coc(n2)-c2cc(Br)cc(n2)-c2nc(co2)-c2nc1co2 [Compound 28] | 300 nM | 150 nM | –
14 | – | CN(C)CCc1oc2nc1C(=O)NCc1cccc(c1)CNC(=O)c1nc(oc1CCN(C)C)-c1coc(n1)-c1cccc(n1)-c1nc-2co1 [Compound 78] | 200 nM | 100 nM | –
15 | 289 to 290 °C (dec.) | O=C1NCc2cc(Br)cc(c2)CNC(=O)c2coc(n2)-c2coc(n2)-c2cc(OCCCN3C(=O)c4ccccc4C3=O)cc(n2)-c2nc(co2)-c2nc1co2 [Compound 44] | 1000 nM | 1000 nM | –
16 | 330 °C (dec.) | O=C1NCc2cccc(n2)CNC(=O)c2coc(n2)-c2coc(n2)-c2cccc(n2)-c2nc(co2)-c2nc1co2 [Compound 7] | > 5000 nM | > 5000 nM | –
17 | 249 to 252 °C (dec.) | O=C1NCc2cccc(c2)CNC(=O)c2coc(n2)-c2coc(n2)-c2cc(OCCCN3C(=O)c4ccccc4C3=O)cc(n2)-c2nc(co2)-c2nc1co2 [Compound 43] | 4500 nM | 400 nM | –
18 | 250 °C (dec.) | O=C1NCc2cc(Br)cc(c2)CNC(=O)c2coc(n2)-c2coc(n2)-c2cc(Br)cc(n2)-c2nc(co2)-c2nc1co2 [Compound 34] | > 10000 nM | > 10000 nM | –
19 | 274 to 275 °C (dec.) | O=C1NCc2cccc(c2)CNC(=O)c2coc(n2)-c2csc(n2)-c2cccc(n2)-c2nc(co2)-c2nc1co2 [Compound 14] | 1000 nM | 260 nM | –
20 | 237 to 239 °C (dec.) | NCCCOc1cc2nc(c1)-c1nc(co1)-c1nc(co1)C(=O)NCc1cccc(c1)CNC(=O)c1coc(n1)-c1coc-2n1 [Compound 46] | 5000 nM | 3000 nM | –
21 | 196 to 198 °C | O=C(NCCc1cc2cc(c1)CNC(=O)c1coc(n1)-c1coc(n1)-c1cccc(n1)-c1nc(co1)-c1nc(co1)C(=O)NC2)OCc1ccccc1 [Compound 30] | 120 nM | 120 nM | –
22 | 276 °C (dec.) | O=C1NCCNCCNC(=O)c2coc(n2)-c2coc(n2)-c2cccc(n2)-c2nc(co2)-c2nc1co2 [Compound 8] | > 10000 nM | 4000 nM | –
23 | – | CN(C)CCc1cc2cc(c1)CNC(=O)c1coc(n1)-c1coc(n1)-c1cccc(c1)-c1nc(co1)-c1nc(co1)C(=O)NC2 [Compound 61] | 2000 nM | 400 nM | –
24 | 204 to 205 °C | O=C(NCCc1cc2cc(c1)CNC(=O)c1coc(n1)-c1coc(n1)-c1cc(Br)cc(n1)-c1nc(co1)-c1nc(co1)C(=O)NC2)OCc1ccccc1 [Compound 35] | 1000 nM | 600 nM | –
25 | – | CN(C)c1cc2cc(c1)CNC(=O)c1coc(n1)-c1coc(n1)-c1cccc(n1)-c1nc(co1)-c1nc(co1)C(=O)NC2 [Compound 48] | 60 nM | 30 nM | –
